The target in assay [1] is T1, Probable G-protein coupled receptor 139 (Homo sapiens, UniProt Q6DWJ6).
T1 sequence (Q6DWJ6 whole entry): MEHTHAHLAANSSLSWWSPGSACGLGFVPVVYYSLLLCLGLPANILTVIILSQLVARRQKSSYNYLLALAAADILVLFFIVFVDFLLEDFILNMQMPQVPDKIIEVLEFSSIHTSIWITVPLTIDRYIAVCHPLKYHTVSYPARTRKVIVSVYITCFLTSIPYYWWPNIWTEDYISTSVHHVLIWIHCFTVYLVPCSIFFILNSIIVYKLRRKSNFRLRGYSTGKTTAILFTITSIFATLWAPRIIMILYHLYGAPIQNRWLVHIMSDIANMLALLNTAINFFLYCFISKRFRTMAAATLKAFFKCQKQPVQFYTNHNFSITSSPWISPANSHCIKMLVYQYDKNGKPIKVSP
The assay can be described thus: Agonist activity at human GPR139 expressed in CHO-K1 cells assessed as induction of beta-arrestin 2 recruitment incubated for 90 mins by PathHunter assay. Format: cell-based.

Assay [2] addresses T2, Probable G-protein coupled receptor 139 (Rattus norvegicus, UniProt P0C0W8).
T2 sequence (P0C0W8 whole entry): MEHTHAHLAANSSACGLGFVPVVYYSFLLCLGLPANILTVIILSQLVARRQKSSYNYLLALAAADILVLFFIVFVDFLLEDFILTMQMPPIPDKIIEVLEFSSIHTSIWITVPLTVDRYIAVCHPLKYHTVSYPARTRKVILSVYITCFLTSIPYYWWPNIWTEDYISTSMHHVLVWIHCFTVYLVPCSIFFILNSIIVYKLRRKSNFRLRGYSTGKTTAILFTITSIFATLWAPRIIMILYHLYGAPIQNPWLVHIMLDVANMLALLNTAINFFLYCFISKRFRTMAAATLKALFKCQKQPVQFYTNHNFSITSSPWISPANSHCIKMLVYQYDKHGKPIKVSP
The assay can be described thus: Agonist activity at rat GPR139 expressed in CHO-K1 cells assessed as increase in calcium flux by calcium 5 dye based FLIPR assay. Format: cell-based. On the technique in general: Calcium flux is commonly read through the fluorescence of an indicator in the cells.

Assay [3] deals with T3, Probable G-protein coupled receptor 139 (Homo sapiens) (UniProt Q6DWJ6).
T3 sequence (whole entry): T1 sequence (Q6DWJ6 whole entry)
The assay can be described thus: Agonist activity at human GPR139 expressed in CHO-K1 cells assessed as increase in calcium flux by calcium 5 dye based FLIPR assay relative to JNJ63533054. It counts as functional, cell-based. As to conditions: filed as agonist.

The target in assay [4] is T3, Probable G-protein coupled receptor 139 (Homo sapiens). The assay can be described thus: Agonist activity at human GPR139 expressed in CHO-K1 cells assessed as induction of beta-arrestin 2 recruitment incubated for 90 mins by PathHunter assay relative to JNJ63533054. Format: cell-based. A general note: Activated receptors often draw arrestin, which recruitment assays turn into a signal.

Assay [5] deals with T1, Probable G-protein coupled receptor 139. The assay can be described thus: Agonist activity at human GPR139 expressed in CHO-K1 cells assessed as increase in calcium flux by calcium 5 dye based FLIPR assay. Format: functional, cell-based.
The target in assay [6] is T4, Probable G-protein coupled receptor 139 (Rattus norvegicus) (UniProt P0C0W8).
T4 sequence (whole entry): T2 sequence (P0C0W8 whole entry)
The assay can be described thus: Agonist activity at rat GPR139 expressed in CHO-K1 cells assessed as increase in calcium flux by calcium 5 dye based FLIPR assay relative to JNJ63533054. It counts as cell-based.

SMILES strings stand for the structures.

Turning to `Cc1ccn2c(=O)n(CC(=O)N[C@@H](C)c3ccc(Cl)c(F)c3)nc2c1`, the results for the EC50 in assay [1] (cho-k1), in assay [2] and in assay [5] were 1 nM, under 1 nM and under 1 nM, respectively. The Emax in assay [3], in assay [4] (filed as agonist) and in assay [6] (filed as agonist) was over 80% each time.

With `COc1ccn2c(=O)n(CC(=O)N[C@@H](C)c3ccc(C)cc3)nc2c1`, the EC50 (as a rule, the concentration that produces a half-maximal response) in assay [1] (cho-k1) is 1 nM; in assay [2], under 1 nM; in assay [5] it was under 1 nM. Further, the Emax (in general, the greatest response seen or fitted, relative to the assay's reference) in assay [3] was over 80%; in assay [4] (filed as agonist) it was 50%; in assay [6] (filed as agonist) it was 50%.

For the compound `C[C@H](NC(=O)Cn1nc2cc(N3CCC[C@H](O)C3)ccn2c1=O)c1ccc(OC(F)(F)F)cc1`, the EC50 in assay [1] was at least 100 nM; in assay [2] (cho-k1), 1 nM; in assay [5] (cho-k1), 1 nM. The Emax in assay [3], in assay [4] (filed as agonist) and in assay [6] (filed as agonist) was over 80% each time.

As to `C[C@H](NC(=O)Cn1nc2c(I)ccnn2c1=O)c1ccc(OC(F)(F)F)cc1`, the EC50 was at least 100 nM in assay [1], 10 nM in assay [2] (cho-k1) and under 1 nM in assay [5]. In addition, the Emax in assay [3] was 50%; in assay [4] it was under 25%; in assay [6] (filed as agonist), 25%.

For the compound `Cc1ccc([C@H](C)NC(=O)Cn2nc3c(C4CCN(C)C4)cccn3c2=O)cc1` (some centres undefined), the EC50 in assay [1], in assay [2] and in assay [5] was at least 100 nM each time. The Emax in assay [3] came to 50%; in assay [4], 25%; in assay [6], 25%.

For `C[C@H](NC(=O)Cn1nc2ccc(C3CC3)nn2c1=O)c1ccc(OC(F)(F)F)cc1`, the EC50 is 10 nM in assay [1] (cho-k1), at least 100 nM in assay [2] and 1 nM in assay [5] (cho-k1). Further, the Emax in assay [3] is over 80%; in assay [4], 25%; in assay [6] it was under 25%.

In the case of `C[C@H](NC(=O)Cn1nc2c(C(F)F)nccn2c1=O)c1ccc(OC(F)(F)F)cc1`, the EC50 in assay [1] was under 1 nM; in assay [2], at least 100 nM; in assay [5] (cho-k1) it was 1 nM. Further, the Emax was over 80% in assay [3], 25% in assay [4] and 50% in assay [6] (filed as agonist).

In the case of `C[C@H](NC(=O)Cn1nc2c(OC3CN(C)C3)nccn2c1=O)c1ccc(Cl)c(F)c1`, the concentration for a half-maximal effect (EC50) in assay [1], in assay [2] and in assay [5] was at least 100 nM each time. Besides, the Emax was 50% in assay [3], 25% in assay [4] and over 80% in assay [6] (filed as agonist).

For `Cc1ccc([C@H](C)NC(=O)Cn2nc3ccccn3c2=O)cc1Cl`, the EC50 in assay [1] (cho-k1) was 1 nM; in assay [2] (cho-k1), 1 nM; in assay [5], under 1 nM. In addition, the Emax in assay [3], in assay [4] (filed as agonist) and in assay [6] (filed as agonist) was over 80% each time.

These data come from ChEMBL document CHEMBL4739716, “Gpr139 receptor modulators” (2020).
